Experimental data published in ChEMBL document CHEMBL1201862, “PubChem BioAssay data set” (2004).
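Five concentrations, 48 hours, 96-well plates. GI50 is the concentration that inhibits growth by half.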 The source made the active and inactive calls. No stated cut-off is given here; in the data, active = GI50 up to about 1.1 µM and inactive = higher.

What was measured:
Assay in all cases: inhibition of tumour cell growth, NCI panel, 48 h
CAKI-1 = tested on: CAKI-1
CCRF-CEM = tested on: CCRF-CEM
HCT-15 = tested on: HCT-15
HT-29 = tested on: HT-29
KM12 = tested on: KM12
Malme-3M = tested on: Malme-3M
NCI-H522 = tested on: NCI-H522
OVCAR-5 = tested on: OVCAR-5
SF-539 = tested on: SF-539
SK-MEL-28 = tested on: SK-MEL-28
SK-MEL-5 = tested on: SK-MEL-5
U-251 = tested on: U-251
UACC-62 = tested on: UACC-62
UO-31 = tested on: UO-31
A498 = tested on: A498
SN12C = tested on: SN12C
LOX IMVI = tested on: LOX IMVI

Structure (SMILES) | GI50 (CAKI-1) | GI50 (CCRF-CEM) | GI50 (HCT-15) [µM] | GI50 (HT-29) | GI50 (KM12) | GI50 (Malme-3M) | GI50 (NCI-H522) | GI50 (OVCAR-5) | GI50 (SF-539) | GI50 (SK-MEL-28) | GI50 (SK-MEL-5) | GI50 (U-251) | GI50 (UACC-62) | GI50 (UO-31) | GI50 (A498) | GI50 (SN12C) | GI50 (LOX IMVI)
O=[N+]([O-])/C=C/c1ccc(Cl)cc1Cl | 16.3 µM (inactive) | 3.62 µM (inactive) | 15 | 5.77 µM (inactive) | 14.7 µM (inactive) | 17.8 µM (inactive) | 14.6 µM (inactive) | 17.8 µM (inactive) | 17.1 µM (inactive) | 14.9 µM (inactive) | 15.6 µM (inactive) | 5.66 µM (inactive) | 15.7 µM (inactive) | 16.2 µM (inactive) | – | – | –
COC(=O)/C=C1/CCC2[C@@H](C(=O)CC3[C@]2(C)CCC[C@@]3(C)C(=O)OC)C1C (stereo partly specified) | 5.36 µM (inactive) | 3.56 µM (inactive) | 14 | 5.64 µM (inactive) | 12.6 µM (inactive) | 16.1 µM (inactive) | 5.07 µM (inactive) | 20 µM (inactive) | 14.9 µM (inactive) | 13.3 µM (inactive) | 5.69 µM (inactive) | 15.4 µM (inactive) | 10.7 µM (inactive) | 15.1 µM (inactive) | 17.7 µM (inactive) | 15.3 µM (inactive) | –
O=C(N/C(=C\c1cccc([N+](=O)[O-])c1)c1nc2cc([N+](=O)[O-])ccc2[nH]1)c1ccccc1 | 30.4 µM (inactive) | 19.8 µM (inactive) | 22.1 | 44.4 µM (inactive) | 29.6 µM (inactive) | 48.2 µM (inactive) | 18.3 µM (inactive) | 73.3 µM (inactive) | 29.4 µM (inactive) | 36.9 µM (inactive) | 20.7 µM (inactive) | 40.7 µM (inactive) | 19.7 µM (inactive) | 10.9 µM (inactive) | – | 39.4 µM (inactive) | –
COc1ccc(OC)c(CCc2ccccc2CC(=O)O)c1 | > 100 µM (inactive) | > 100 µM (inactive) | > 100 | > 100 µM (inactive) | > 100 µM (inactive) | > 100 µM (inactive) | > 100 µM (inactive) | > 100 µM (inactive) | > 100 µM (inactive) | > 100 µM (inactive) | > 100 µM (inactive) | > 100 µM (inactive) | > 100 µM (inactive) | > 100 µM (inactive) | > 100 µM (inactive) | > 100 µM (inactive) | > 100 µM (inactive)
COc1ccc2nc3ccccc3c(NCCN(CCCl)CCCl)c2c1 | 0.251 µM (active) | 0.144 µM (active) | – | 0.543 µM (active) | 1.34 µM (inactive) | 1.51 µM (inactive) | 0.348 µM (active) | 0.643 µM (active) | 0.608 µM (active) | 2.36 µM (inactive) | – | 0.326 µM (active) | 1 µM (active) | 1.57 µM (inactive) | 2.49 µM (inactive) | 0.658 µM (active) | –
COc1ccc(-c2cc(=O)c3c(O)cc(O)cc3o2)c(OC)c1OC | 60.8 µM (inactive) | 50 µM (inactive) | – | 80 µM (inactive) | 53.1 µM (inactive) | > 100 µM (inactive) | 52.1 µM (inactive) | 92.3 µM (inactive) | > 100 µM (inactive) | 94.2 µM (inactive) | – | – | 97.1 µM (inactive) | – | – | > 100 µM (inactive) | 70.1 µM (inactive)
CCCc1nn(C)c(CCC(=O)N(Cc2ccccc2)Cc2ccccc2)c1CC | – | > 100 µM (inactive) | > 100 | > 100 µM (inactive) | > 100 µM (inactive) | > 100 µM (inactive) | > 100 µM (inactive) | > 100 µM (inactive) | > 100 µM (inactive) | > 100 µM (inactive) | > 100 µM (inactive) | > 100 µM (inactive) | > 100 µM (inactive) | > 100 µM (inactive) | > 100 µM (inactive) | > 100 µM (inactive) | > 100 µM (inactive)
O=c1cc(-c2ccccc2)oc2cc(O)cc(O)c12 [CHRYSIN] | – | 19.4 µM (inactive) | 20.4 | 23.4 µM (inactive) | 15.5 µM (inactive) | 24.3 µM (inactive) | 15.9 µM (inactive) | 18.6 µM (inactive) | 15.1 µM (inactive) | 16.8 µM (inactive) | 10.1 µM (inactive) | 21.7 µM (inactive) | 21.5 µM (inactive) | 20.4 µM (inactive) | – | 17.9 µM (inactive) | 14.7 µM (inactive)
CCC12CCCN(Cc3ccccc3)C1c1c(n(C)c3ccccc13)C(C(=O)OC)C2 (stereo unspecified) | 205 µM (inactive) | 143 µM (inactive) | 70.3 | 73.1 µM (inactive) | 85.3 µM (inactive) | > 239 µM (inactive) | 53.2 µM (inactive) | 78.2 µM (inactive) | 126 µM (inactive) | > 239 µM (inactive) | 43.8 µM (inactive) | 117 µM (inactive) | > 239 µM (inactive) | – | – | 84.1 µM (inactive) | 158 µM (inactive)
CN1C(=O)C(Cl)(C(Cl)(Cl)S(=O)(=O)O)C(=O)c2ccccc21.c1ccncc1 (stereo unspecified) | > 100 µM (inactive) | > 100 µM (inactive) | – | 25.7 µM (inactive) | > 100 µM (inactive) | 33.2 µM (inactive) | 44.9 µM (inactive) | – | > 100 µM (inactive) | > 100 µM (inactive) | > 100 µM (inactive) | > 100 µM (inactive) | > 100 µM (inactive) | 91.2 µM (inactive) | > 100 µM (inactive) | > 100 µM (inactive) | > 100 µM (inactive)
COC[C@@H](/N=C/N1CCc2cc(OC)c(OC)cc2C1)C(C)(C)C | > 100 µM (inactive) | > 100 µM (inactive) | > 100 | > 100 µM (inactive) | > 100 µM (inactive) | > 100 µM (inactive) | > 100 µM (inactive) | – | > 100 µM (inactive) | > 100 µM (inactive) | > 100 µM (inactive) | > 100 µM (inactive) | > 100 µM (inactive) | > 100 µM (inactive) | – | > 100 µM (inactive) | –
COC(=O)C1=C(c2ccc(OC)c(OC)c2)OC(c2ccc(OC)c(OC)c2)C1 (stereo unspecified) | – | 31.4 µM (inactive) | 25.2 | 22.3 µM (inactive) | 32.7 µM (inactive) | 30 µM (inactive) | – | 32.6 µM (inactive) | 33.4 µM (inactive) | 45.1 µM (inactive) | 15.6 µM (inactive) | 36.1 µM (inactive) | 35.6 µM (inactive) | 28.8 µM (inactive) | 12.7 µM (inactive) | 27.9 µM (inactive) | 19.5 µM (inactive)
Cc1ccccc1C(C#N)/C(=N/NC(=O)C(=O)NN)C(=O)Nc1cccc(C(F)(F)F)c1 (stereo unspecified) | > 100 µM (inactive) | > 100 µM (inactive) | > 100 | > 100 µM (inactive) | > 100 µM (inactive) | > 100 µM (inactive) | > 100 µM (inactive) | > 100 µM (inactive) | > 100 µM (inactive) | > 100 µM (inactive) | > 100 µM (inactive) | > 100 µM (inactive) | > 100 µM (inactive) | > 100 µM (inactive) | > 100 µM (inactive) | > 100 µM (inactive) | –
Cc1cc(O)nc(NNC(C#N)c2ccccc2O)n1 (stereo unspecified) | 30.8 µM (inactive) | 13.6 µM (inactive) | 11.9 | 30.2 µM (inactive) | 35.6 µM (inactive) | 35.7 µM (inactive) | 41.4 µM (inactive) | 58.6 µM (inactive) | 10.4 µM (inactive) | 36.3 µM (inactive) | 19.9 µM (inactive) | 15.2 µM (inactive) | 21.7 µM (inactive) | 18.5 µM (inactive) | – | 73.6 µM (inactive) | 17.6 µM (inactive)
c1ccc(-c2nnc3nn4c(-c5ccccc5)cnnc4c3c2-c2ccccc2)cc1 | 23.7 µM (inactive) | > 100 µM (inactive) | > 100 | 95.3 µM (inactive) | > 100 µM (inactive) | 42.5 µM (inactive) | – | > 100 µM (inactive) | 26.3 µM (inactive) | 64 µM (inactive) | 67.1 µM (inactive) | 32.6 µM (inactive) | 32.1 µM (inactive) | 23.2 µM (inactive) | > 100 µM (inactive) | > 100 µM (inactive) | > 100 µM (inactive)
CC(C)C(Nc1c2ccccc2nc2ccccc12)C(=O)O (stereo unspecified) | > 100 µM (inactive) | > 100 µM (inactive) | > 100 | 59.7 µM (inactive) | > 100 µM (inactive) | > 100 µM (inactive) | > 100 µM (inactive) | > 100 µM (inactive) | > 100 µM (inactive) | > 100 µM (inactive) | – | > 100 µM (inactive) | > 100 µM (inactive) | 29.1 µM (inactive) | – | > 100 µM (inactive) | 55.1 µM (inactive)
COc1ccc(/C=N/N=C(\N)NO)cc1OC | 29.5 µM (inactive) | 49.7 µM (inactive) | 75.2 | 28.7 µM (inactive) | 52.7 µM (inactive) | 75.2 µM (inactive) | 26.3 µM (inactive) | 63 µM (inactive) | 26.3 µM (inactive) | > 100 µM (inactive) | 15.2 µM (inactive) | 38.1 µM (inactive) | 23.3 µM (inactive) | 28.1 µM (inactive) | – | 45.8 µM (inactive) | 30.3 µM (inactive)
CC[C@H](C)C(=O)O[C@H]1C[C@@H](C)C=C2C=C[C@H](C)[C@H](CC[C@@H]3C[C@@H](O)CC(=O)O3)[C@H]21 [LOVASTATIN] | 1.17 µM (inactive) | 18.4 µM (inactive) | 3.12 | 11.6 µM (inactive) | > 30 µM (inactive) | > 30 µM (inactive) | – | > 30 µM (inactive) | – | 25 µM (inactive) | 6.7 µM (inactive) | – | 1.53 µM (inactive) | 6.27 µM (inactive) | 1.21 µM (inactive) | 1.71 µM (inactive) | 1.58 µM (inactive)
